Assay results published in patent US11446287B2, “Compounds and methods for EP300 or CBP modulation and indications therefor” (Opna Immuno-Oncology SA, priority 2019, dated 2022).

The compounds below were run against T1, Recombinant human EP300 containing the bromodomain (EP300-BD (1040-1161)) (Homo sapiens, UniProt Q09472) (assay: EP300 Alphascreen binding assay).
T1 construct: Recombinant human EP300 bromodomain (EP300-BD (1040-1161)); made in house; host or cells: E. coli BL21-CodonPlus (DE3), modified pET vector
T1 sequence (Q09472 1040-1161): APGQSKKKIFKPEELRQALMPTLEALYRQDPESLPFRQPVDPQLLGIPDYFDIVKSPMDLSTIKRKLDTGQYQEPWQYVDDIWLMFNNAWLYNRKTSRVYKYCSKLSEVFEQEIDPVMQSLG
In short: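 Displacement of a biotinylated acetyl-K56 histone H3 peptide from the N-His bromodomain construct (1040-1161) measured by AlphaScreen proximity, beads at 7.5 μg/ml final, read 60 min after addition. Protein, peptide and compound first incubated 1 h at room temperature, pH 7.5 HEPES buffer; IC50 by four-parameter logistic fit.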

Question: How did the IC50 turn out when CCOc1nc(C(=O)O)cc(C)c1-c1cn(-c2ccc(F)cc2F)c2ncc(-c3c(C)noc3C)cc12 [P-0412, 5-(1-(2,4-difluorophenyl)-5-(3,5-dimethylisoxazol-4-yl)-1H-pyrrolo[2,3-b]pyridin-3-yl)-6-ethoxy-4-methylpicolinic acid] was run?
Answer: The IC50 was 0.0001 to 1 µM.

Question: Which IC50 does the source give for Cc1nnn(C)c1-c1cnc2c(c1)c(-c1ccc(C(=O)O)cc1OC1CC1)cn2C1CCOCC1 [P-0413, 3-cyclopropoxy-4-(5-(1,4-dimethyl-1H-1,2,3-triazol-5-yl)-1-(tetrahydro-2H-pyran-4-yl)-1H-pyrrolo[2,3-b]pyridin-3-yl)benzoic acid] here?
Answer: Its IC50 is 0.0001 to 1 µM.

Question: With CCOc1cc(C(=O)O)nc(OCC)c1-c1cn(-c2ccccc2F)c2ncc(-c3c(C)noc3C)cc12 [P-0414, 5-(5-(3,5-dimethylisoxazol-4-yl)-1-(2-fluorophenyl)-1H-pyrrolo[2,3-b]pyridin-3-yl)-4,6-diethoxypicolinic acid] as the compound, how does the IC50 read?
Answer: Its IC50 is 0.0001 to 1 µM.

Question: With CCOc1cc(C(=O)O)nc(OCC)c1-c1cn([C@@H](C)c2ccccn2)c2ncc(-c3c(C)noc3C)cc12 [P-0415, (S)-5-(5-(3,5-dimethylisoxazol-4-yl)-1-(1-(pyridin-2-yl)ethyl)-1H-pyrrolo[2,3-b]pyridin-3-yl)-4,6-diethoxypicolinic acid] as the compound, how does the IC50 read?
Answer: The IC50 was 0.0001 to 1 µM.

Question: CCOc1nc(C(=O)O)c(C)cc1-c1cn(C(C2CC2)C2CC2)c2ncc(-c3c(C)noc3C)cc12 [P-0416, 5-(1-(dicyclopropylmethyl)-5-(3,5-dimethylisoxazol-4-yl)-1H-pyrrolo[2,3-b]pyridin-3-yl)-6-ethoxy-3-methylpicolinic acid] was tested. Which IC50 did it give?
Answer: Its IC50 is 0.0001 to 1 µM.

Question: Which IC50 does the source give for CCOc1nc(C(=O)O)cc(C)c1-c1cn(C(C2CC2)C2CC2)c2ncc(-c3c(C)noc3C)cc12 [P-0417, 5-(1-(dicyclopropylmethyl)-5-(3,5-dimethylisoxazol-4-yl)-1H-pyrrolo[2,3-b]pyridin-3-yl)-6-ethoxy-4-methylpicolinic acid] here?
Answer: Its IC50 is 0.0001 to 1 µM.

Question: For Cc1noc(C)c1-c1cnc2c(c1)c(-c1ccnc(C(=O)O)c1C)cn2C(C1CC1)C1CC1 [P-0418, 4-(1-(dicyclopropylmethyl)-5-(3,5-dimethylisoxazol-4-yl)-1H-pyrrolo[2,3-b]pyridin-3-yl)-3-methylpicolinic acid], which IC50 is on record?
Answer: The IC50 was 0.0001 to 1 µM.

Question: Cc1noc(C)c1-c1cnc2c(c1)c(-c1ccnc(C(=O)O)c1C)cn2C1CCOCC1 [P-0419, 4-(5-(3,5-dimethylisoxazol-4-yl)-1-(tetrahydro-2H-pyran-4-yl)-1H-pyrrolo[2,3-b]pyridin-3-yl)-3-methylpicolinic acid] was tested. Which IC50 did it give?
Answer: Its IC50 is 0.0001 to 1 µM.

Question: CCOc1cc(C(=O)O)nc(OCC)c1-c1cn(C(C2CC2)C2CC2)c2ncc(-c3c(C)noc3C)cc12 [P-0420, 5-(1-(dicyclopropylmethyl)-5-(3,5-dimethylisoxazol-4-yl)-1H-pyrrolo[2,3-b]pyridin-3-yl)-4,6-diethoxypicolinic acid] was tested. Which IC50 did it give?
Answer: Its IC50 is 0.0001 to 1 µM.

Question: For CCOc1cc(C(=O)O)nc(OCC)c1-c1cn(-c2ncccc2C#N)c2ncc(-c3c(C)noc3C)cc12 [P-0421, 5-(1-(3-cyanopyridin-2-yl)-5-(3,5-dimethylisoxazol-4-yl)-1H-pyrrolo[2,3-b]pyridin-3-yl)-4,6-diethoxypicolinic acid], which IC50 is on record?
Answer: The IC50 was 0.0001 to 1 µM.

Question: Which IC50 does the source give for CCOc1cc(C(=O)O)nc(OCC)c1-c1cn(-c2ncccc2C(N)=O)c2ncc(-c3c(C)noc3C)cc12 [P-0422, 5-(1-(3-carbamoylpyridin-2-yl)-5-(3,5-dimethylisoxazol-4-yl)-1H-pyrrolo[2,3-b]pyridin-3-yl)-4,6-diethoxypicolinic acid] here?
Answer: The IC50 was 0.0001 to 1 µM.

Question: CCOc1cc(C(=O)O)nc(OCC)c1-c1cn(-c2ccc(C#N)cc2F)c2ncc(-c3c(C)noc3C)cc12 [P-0423, 5-(1-(4-cyano-2-fluorophenyl)-5-(3,5-dimethylisoxazol-4-yl)-1H-pyrrolo[2,3-b]pyridin-3-yl)-4,6-diethoxypicolinic acid] was tested. Which IC50 did it give?
Answer: Its IC50 is 0.0001 to 1 µM.

Question: With CCOc1cc(C(=O)O)nc(OCC)c1-c1cn(-c2cnc(C3CC3)nc2)c2ncc(-c3c(C)noc3C)cc12 [P-0424, 5-(1-(2-cyclopropylpyrimidin-5-yl)-5-(3,5-dimethylisoxazol-4-yl)-1H-pyrrolo[2,3-b]pyridin-3-yl)-4,6-diethoxypicolinic acid] as the compound, how does the IC50 read?
Answer: Its IC50 is 0.0001 to 1 µM.

Question: Which IC50 does the source give for CCOc1cc(C(=O)O)nc(OCC)c1-c1cn(C2CCC(F)(F)CC2)c2ncc(-c3c(C)noc3C)cc12 [P-0425, 5-(1-(4,4-difluorocyclohexyl)-5-(3,5-dimethylisoxazol-4-yl)-1H-pyrrolo[2,3-b]pyridin-3-yl)-4,6-diethoxypicolinic acid] here?
Answer: Its IC50 is 0.0001 to 1 µM.

Question: For CCOc1cc(C(=O)O)ncc1-c1cn(C(C2CC2)C2CC2)c2ncc(-c3c(C)noc3C)cc12 [P-0427, 5-(1-(dicyclopropylmethyl)-5-(3,5-dimethylisoxazol-4-yl)-1H-pyrrolo[2,3-b]pyridin-3-yl)-4-ethoxypicolinic acid], which IC50 is on record?
Answer: Its IC50 is 0.0001 to 1 µM.

Question: For CCOc1cc(C(=O)O)ncc1-c1cn(C2CCOCC2)c2ncc(-c3c(C)noc3C)cc12 [P-0428, 5-(5-(3,5-dimethylisoxazol-4-yl)-1-(tetrahydro-2H-pyran-4-yl)-1H-pyrrolo[2,3-b]pyridin-3-yl)-4-ethoxypicolinic acid], which IC50 is on record?
Answer: Its IC50 is 0.0001 to 1 µM.

Question: How did the IC50 turn out when CCOc1cc(C(=O)O)nc(OCC)c1-c1cn(-c2cn(C(F)F)nc2C)c2ncc(-c3c(C)noc3C)cc12 [P-0429, 5-(1-(1-(difluoromethyl)-3-methyl-1H-pyrazol-4-yl)-5-(3,5-dimethylisoxazol-4-yl)-1H-pyrrolo[2,3-b]pyridin-3-yl)-4,6-diethoxypicolinic acid] was run?
Answer: Its IC50 is 0.0001 to 1 µM.

Question: How did the IC50 turn out when CCOc1cc(C(=O)O)nc(OCC)c1-c1cn(-c2cn(CC)nc2C)c2ncc(-c3c(C)noc3C)cc12 [P-0430, 5-(5-(3,5-dimethylisoxazol-4-yl)-1-(1-ethyl-3-methyl-1H-pyrazol-4-yl)-1H-pyrrolo[2,3-b]pyridin-3-yl)-4,6-diethoxypicolinic acid] was run?
Answer: The IC50 was 0.0001 to 1 µM.

Question: For CCOc1cc(C(=O)O)nc(OCC)c1-n1cc(-c2ccc(F)cc2F)c2ncc(-c3c(C)noc3C)cc21 [P-0431, 5-(3-(2,4-difluorophenyl)-6-(3,5-dimethylisoxazol-4-yl)-1H-pyrrolo[3,2-b]pyridin-1-yl)-4,6-diethoxypicolinic acid], which IC50 is on record?
Answer: Its IC50 is 0.0001 to 1 µM.

Question: For CCOc1cc(C(=O)OC)nc(OCC)c1-c1cn(-c2ccc(F)cc2F)c2ncc(-c3c(C)noc3C)cc12 [P-0432, methyl 5-(1-(2,4-difluorophenyl)-5-(3,5-dimethylisoxazol-4-yl)-1H-pyrrolo[2,3-b]pyridin-3-yl)-4,6-diethoxypicolinate], which IC50 is on record?
Answer: The IC50 was 0.0001 to 1 µM.

Question: CCOc1cc(C(=O)O)nc(OCC)c1-c1cn(C2CCN(C(=O)OC(C)(C)C)CC2)c2ncc(-c3c(C)noc3C)cc12 [P-0433, 5-(1-(1-(tert-butoxycarbonyl)piperidin-4-yl)-5-(3,5-dimethylisoxazol-4-yl)-1H-pyrrolo[2,3-b]pyridin-3-yl)-4,6-diethoxypicolinic acid] was tested. Which IC50 did it give?
Answer: Its IC50 is 0.0001 to 1 µM.

Question: Which IC50 does the source give for Cc1noc(C)c1-c1cnc2c(c1)c(C1CCC(C(=O)O)CC1)cn2-c1ccc(F)cc1F (stereo not drawn) [P-0434, 4-(1-(2,4-difluorophenyl)-5-(3,5-dimethylisoxazol-4-yl)-1H-pyrrolo[2,3-b]pyridin-3-yl)cyclohexane-1-carboxylic acid] here?
Answer: The IC50 was 0.0001 to 1 µM.

Question: How did the IC50 turn out when CCOc1cc(C(=O)O)nc(OCC)c1-c1cn(C2CCN(S(C)(=O)=O)CC2)c2ncc(-c3c(C)noc3C)cc12 [P-0435, 5-(5-(3,5-dimethylisoxazol-4-yl)-1-(1-(methylsulfonyl)piperidin-4-yl)-1H-pyrrolo[2,3-b]pyridin-3-yl)-4,6-diethoxypicolinic acid] was run?
Answer: The IC50 was 0.0001 to 1 µM.

Question: CCOc1cc(C(=O)O)nc(OCC)c1-c1cn(-c2cccnc2)c2ncc(-c3c(C)noc3C)cc12 [P-0436, 5-(5-(3,5-dimethylisoxazol-4-yl)-1-(pyridin-3-yl)-1H-pyrrolo[2,3-b]pyridin-3-yl)-4,6-diethoxypicolinic acid] was tested. Which IC50 did it give?
Answer: The IC50 was 0.0001 to 1 µM.

Question: Which IC50 does the source give for Cc1noc(C)c1-c1cnc2c(c1)c(-c1ccc(CC(=O)O)cc1F)cn2-c1ccc(F)cc1F [P-0437] here?
Answer: Its IC50 is 0.0001 to 1 µM.

Question: For Cc1noc(C)c1-c1cnc2c(c1)c(-c1ccc(CC(=O)O)cc1)cn2-c1ccc(F)cc1F [P-0438, 2-(4-(1-(2,4-difluorophenyl)-5-(3,5-dimethylisoxazol-4-yl)-1H-pyrrolo[2,3-b]pyridin-3-yl)phenyl)acetic acid], which IC50 is on record?
Answer: The IC50 was 0.0001 to 1 µM.

Question: With Cc1noc(C)c1-c1cnc2c(c1)c(-c1c(Cl)cc(C(=O)O)cc1OC(F)(F)F)cn2-c1cccnn1 [P-0439, 3-chloro-4-(5-(3,5-dimethylisoxazol-4-yl)-1-(pyridazin-3-yl)-1H-pyrrolo[2,3-b]pyridin-3-yl)-5-(trifluoromethoxy)benzoic acid] as the compound, how does the IC50 read?
Answer: The IC50 was 0.0001 to 1 µM.

Question: How did the IC50 turn out when COC(=O)c1cc(Cl)c(-c2cn(-c3ccc(C4CC4)nc3)c3ncc(-c4c(C)noc4C)cc23)c(OC(F)(F)F)c1 [P-0440, methyl 3-chloro-4-(1-(6-cyclopropylpyridin-3-yl)-5-(3,5-dimethylisoxazol-4-yl)-1H-pyrrolo[2,3-b]pyridin-3-yl)-5-(trifluoromethoxy)benzoate] was run?
Answer: The IC50 was 1 to 8 µM.

Question: For Cc1noc(C)c1-c1cnc2c(c1)c(-c1c(Cl)cc(C(=O)O)cc1OC(F)(F)F)cn2-c1ccc(C2CC2)nc1 [P-0441, 3-chloro-4-(1-(6-cyclopropylpyridin-3-yl)-5-(3,5-dimethylisoxazol-4-yl)-1H-pyrrolo[2,3-b]pyridin-3-yl)-5-(trifluoromethoxy)benzoic acid], which IC50 is on record?
Answer: The IC50 was 0.0001 to 1 µM.

Question: For CCOc1cc(C(=O)O)c(F)cc1-c1cn(C2CCN(C(=O)OC(C)(C)C)CC2)c2ncc(-c3c(C)noc3C)cc12 [P-0442, 4-(1-(1-(tert-butoxycarbonyl)piperidin-4-yl)-5-(3,5-dimethylisoxazol-4-yl)-1H-pyrrolo[2,3-b]pyridin-3-yl)-5-ethoxy-2-fluorobenzoic acid], which IC50 is on record?
Answer: Its IC50 is 0.0001 to 1 µM.
